Key:
PTPN1 (i.e., PTP1B) = biological target: T1, PTPN1 (i.e., PTP1B) (Homo sapiens, UniProt P18031); experiment: Phosphatase activity assay (DiFMUP substrate), PTP1B; format: biochemical; settings: compounds binned ≤1 uM or >1 uM
T1 sequence (P18031 1-435): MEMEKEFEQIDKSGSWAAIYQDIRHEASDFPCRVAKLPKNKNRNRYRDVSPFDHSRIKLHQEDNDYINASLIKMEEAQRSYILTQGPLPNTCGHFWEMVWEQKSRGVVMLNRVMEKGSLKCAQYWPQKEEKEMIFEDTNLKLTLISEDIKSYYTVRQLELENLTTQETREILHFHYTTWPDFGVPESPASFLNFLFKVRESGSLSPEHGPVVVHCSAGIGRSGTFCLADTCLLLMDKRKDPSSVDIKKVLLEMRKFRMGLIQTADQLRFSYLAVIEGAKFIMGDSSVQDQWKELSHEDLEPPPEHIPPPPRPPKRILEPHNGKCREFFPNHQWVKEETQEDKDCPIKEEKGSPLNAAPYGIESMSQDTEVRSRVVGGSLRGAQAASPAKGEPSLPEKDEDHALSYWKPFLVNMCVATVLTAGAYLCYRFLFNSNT
Method in brief: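 First, serially diluted inhibitor is mixed about 2 minutes with enzyme in pH 7.5 HEPES/NaCl/EDTA/DTT/Tween-20 buffer. Next, DiFMUP is added at the enzyme's Km, approximately 45 μM for PTPN2. Finally, DiFMU appearance is read continuously at room temperature and rates are fitted for IC50.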

PTPN2 (i.e., TC-PTP) = biological target: T2, PTPN2 (i.e., TC-PTP) (Homo sapiens, UniProt P17706); experiment: Phosphatase activity assay (DiFMUP substrate), PTPN2; format: biochemical; settings: compounds binned ≤1 uM or >1 uM
T2 sequence (P17706 1-415): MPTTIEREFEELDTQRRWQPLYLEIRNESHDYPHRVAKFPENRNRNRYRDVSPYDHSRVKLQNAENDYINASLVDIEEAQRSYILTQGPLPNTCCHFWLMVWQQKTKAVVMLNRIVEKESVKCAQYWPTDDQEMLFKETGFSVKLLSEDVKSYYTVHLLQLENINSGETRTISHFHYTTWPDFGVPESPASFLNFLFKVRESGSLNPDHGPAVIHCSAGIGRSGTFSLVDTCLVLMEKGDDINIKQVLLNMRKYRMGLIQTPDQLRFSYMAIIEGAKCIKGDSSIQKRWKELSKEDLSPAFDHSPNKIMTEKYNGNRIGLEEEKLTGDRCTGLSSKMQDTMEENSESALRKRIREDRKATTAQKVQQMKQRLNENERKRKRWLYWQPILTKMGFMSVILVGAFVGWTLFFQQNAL
Method in brief: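 Enzyme (e.g. PTPN2 0.025 ng/ul) mixed about 2 min with compound at 10 serial concentrations in 50 mM HEPES pH 7.5, 150 mM NaCl, 0.5 mM EDTA, 1 mM DTT, 0.001% Tween-20 at room temperature. DiFMUP added at each enzyme's Km (about 45 μM for PTPN2). DiFMU fluorescence (ex 360/em 450 nm) followed 15-30 min; IC50 from 4-parameter fit of rates.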

Row | Compound | IC50 (PTPN1 (i.e., PTP1B)) [µM] | IC50 (PTPN2 (i.e., TC-PTP)) [µM]
1 | COc1ccc(-c2ccc(O)c(N3CC(=O)NS3(=O)=O)c2F)cn1 [Compound 213, 5-(2-fluoro-6-hydroxy-3-(6-methoxypyridin-3-yl)phenyl)-1,2,5-thiadiazolidin-3-one 1,1-dioxide] | ≤ 1 | ≤ 1
2 | O=C1CN(c2c(O)ccc(-c3cnn(C4CCOCC4)c3)c2F)S(=O)(=O)N1 [Compound 214, 5-(2-fluoro-6-hydroxy-3-(1-(tetrahydro-2H-pyran-4-yl)-1H-pyrazol-4-yl)phenyl)-1,2,5-thiadiazolidin-3-one 1,1-dioxide] | ≤ 1 | ≤ 1
3 | CCCCNc1ccc(-c2ccc(O)c(N3CC(=O)NS3(=O)=O)c2F)cn1 [Compound 215, 5-(3-(6-(butylamino)pyridin-3-yl)-2-fluoro-6-hydroxyphenyl)-1,2,5-thiadiazolidin-3-one 1,1-dioxide] | ≤ 1 | ≤ 1
4 | CC(C)CCn1cnc(-c2ccc(O)c(N3CC(=O)NS3(=O)=O)c2F)c1 [Compound 216, 5-(2-fluoro-6-hydroxy-3-(1-isopentyl-1H-imidazol-4-yl)phenyl)-1,2,5-thiadiazolidin-3-one 1,1-dioxide] | ≤ 1 | ≤ 1
5 | O=C1CN(c2c(O)ccc(-c3cnn(Cc4ccc(C(F)(F)F)cc4)c3)c2F)S(=O)(=O)N1 [Compound 217, 5-(2-fluoro-6-hydroxy-3-(1-(4-(trifluoromethyl)benzyl)-1H-pyrazol-4-yl)phenyl)-1,2,5-thiadiazolidin-3-one 1,1-dioxide] | ≤ 1 | ≤ 1
6 | O=C1CN(c2c(O)ccc(-c3cc(O)cc4ccccc34)c2F)S(=O)(=O)N1 [Compound 218, 5-(2-fluoro-6-hydroxy-3-(3-hydroxynaphthalen-1-yl)phenyl)-1,2,5-thiadiazolidin-3-one 1,1-dioxide] | > 1 | > 1
7 | CC(C)CCn1cc(-c2ccc(O)c(N3CC(=O)NS3(=O)=O)c2F)nn1 [Compound 219, 5-(2-fluoro-6-hydroxy-3-(1-isopentyl-1H-1,2,3-triazol-4-yl)phenyl)-1,2,5-thiadiazolidin-3-one 1,1-dioxide] | ≤ 1 | ≤ 1
8 | O=C1CN(c2c(O)ccc(-c3ccc(=O)n(Cc4ccccc4)c3)c2F)S(=O)(=O)N1 [Compound 220, 5-(3-(1-benzyl-6-oxo-1,6-dihydropyridin-3-yl)-2-fluoro-6-hydroxyphenyl)-1,2,5-thiadiazolidin-3-one 1,1-dioxide] | ≤ 1 | ≤ 1
9 | CC(C)CCn1cc(-c2cc(O)cc(N3CC(=O)NS3(=O)=O)c2F)cn1 [Compound 221, 5-(2-fluoro-5-hydroxy-3-(1-isopentyl-1H-pyrazol-4-yl)phenyl)-1,2,5-thiadiazolidin-3-one 1,1-dioxide] | > 1 | > 1
10 | O=C1CN(c2c(O)ccc(-c3cnn(Cc4cccc(F)c4)c3)c2F)S(=O)(=O)N1 [Compound 222, 5-(2-fluoro-3-(1-(3-fluorobenzyl)-1H-pyrazol-4-yl)-6-hydroxyphenyl)-1,2,5-thiadiazolidin-3-one 1,1-dioxide] | ≤ 1 | ≤ 1
11 | O=C1CN(c2c(O)ccc(-c3cnn(Cc4cccc(Cl)c4)c3)c2F)S(=O)(=O)N1 [Compound 223, 5-(3-(1-(3-chlorobenzyl)-1H-pyrazol-4-yl)-2-fluoro-6-hydroxyphenyl)-1,2,5-thiadiazolidin-3-one 1,1-dioxide] | ≤ 1 | ≤ 1
12 | N#Cc1ccc(Cn2cc(-c3ccc(O)c(N4CC(=O)NS4(=O)=O)c3F)cn2)cc1 [Compound 224, 4-((4-(3-(1,1-dioxido-4-oxo-1,2,5-thiadiazolidin-2-yl)-2-fluoro-4-hydroxyphenyl)-1H-pyrazol-1-yl)methyl)benzonitrile] | ≤ 1 | ≤ 1
13 | CN1CCC(Nc2cccc(-c3ccc(O)c(N4CC(=O)NS4(=O)=O)c3F)c2)CC1 [Compound 225, 5-(2-fluoro-4-hydroxy-3′-((1-methylpiperidin-4-yl)amino)-[1,1′-biphenyl]-3-yl)-1,2,5-thiadiazolidin-3-one 1,1-dioxide] | ≤ 1 | ≤ 1

Further lines, results first:

Row | IC50 (PTPN1 (i.e., PTP1B)) [µM] | IC50 (PTPN2 (i.e., TC-PTP)) [µM] | Compound
14 | ≤ 1 | ≤ 1 | Cc1nc(-c2ccc(O)c(N3CC(=O)NS3(=O)=O)c2F)cn1C [Compound 199, 5-(3-(1,2-dimethyl-1H-imidazol-4-yl)-2-fluoro-6-hydroxyphenyl)-1,2,5-thiadiazolidin-3-one 1,1-dioxide]
15 | ≤ 1 | ≤ 1 | O=C1CN(c2c(O)ccc(-c3cn(Cc4cccc(F)c4)cn3)c2F)S(=O)(=O)N1 [Compound 200, 5-(2-fluoro-3-(1-(3-fluorobenzyl)-1H-imidazol-4-yl)-6-hydroxyphenyl)-1,2,5-thiadiazolidin-3-one 1,1-dioxide]
16 | ≤ 1 | ≤ 1 | CC(C)CCOC1CCCN(c2cc(O)c(N3CC(=O)NS3(=O)=O)c(F)c2)C1 (stereo not drawn) [Compound 201, 5-(2-fluoro-6-hydroxy-4-(3-(isopentyloxy)piperidin-1-yl)phenyl)-1,2,5-thiadiazolidin-3-one 1,1-dioxide]
17 | ≤ 1 | ≤ 1 | CN1CCN(c2ccc(-c3ccc(O)c(N4CC(=O)NS4(=O)=O)c3F)cn2)CC1 [Compound 202, 5-(2-fluoro-6-hydroxy-3-(6-(4-methylpiperazin-1-yl)pyridin-3-yl)phenyl)-1,2,5-thiadiazolidin-3-one 1,1-dioxide]
18 | ≤ 1 | ≤ 1 | CC(C)CCn1cc(-c2ccc(O)c(N3CC(=O)NS3(=O)=O)c2F)cn1 [Compound 203, 5-(2-fluoro-6-hydroxy-3-(1-isopentyl-1H-pyrazol-4-yl)phenyl)-1,2,5-thiadiazolidin-3-one 1,1-dioxide]
19 | ≤ 1 | ≤ 1 | N#CCCn1cc(-c2ccc(O)c(N3CC(=O)NS3(=O)=O)c2F)cn1 [Compound 204, 3-(4-(3-(1,1-dioxido-4-oxo-1,2,5-thiadiazolidin-2-yl)-2-fluoro-4-hydroxyphenyl)-1H-pyrazol-1-yl)propanenitrile]
20 | ≤ 1 | ≤ 1 | O=C1CN(c2c(O)ccc(-c3cn(Cc4ccccc4)nn3)c2F)S(=O)(=O)N1 [Compound 205, 5-(3-(1-benzyl-1H-1,2,3-triazol-4-yl)-2-fluoro-6-hydroxyphenyl)-1,2,5-thiadiazolidin-3-one 1,1-dioxide]
21 | ≤ 1 | ≤ 1 | COc1cc(-c2ccc(O)c(N3CC(=O)NS3(=O)=O)c2F)c(F)cn1 [Compound 206, 5-(2-fluoro-3-(5-fluoro-2-methoxypyridin-4-yl)-6-hydroxyphenyl)-1,2,5-thiadiazolidin-3-one 1,1-dioxide]
22 | ≤ 1 | ≤ 1 | O=C1CN(c2c(O)ccc(-c3cnn(CCc4ccccc4)c3)c2F)S(=O)(=O)N1 [Compound 207, 5-(2-fluoro-6-hydroxy-3-(1-phenethyl-1H-pyrazol-4-yl)phenyl)-1,2,5-thiadiazolidin-3-one 1,1-dioxide]
23 | ≤ 1 | ≤ 1 | CN(C)c1ccc(-c2ccc(O)c(N3CC(=O)NS3(=O)=O)c2F)cn1 [Compound 208, 5-(3-(6-(dimethylamino)pyridin-3-yl)-2-fluoro-6-hydroxyphenyl)-1,2,5-thiadiazolidin-3-one 1,1-dioxide]
24 | ≤ 1 | ≤ 1 | O=C1CN(c2c(O)ccc(-c3cn(-c4ccc(F)cc4)cn3)c2F)S(=O)(=O)N1 [Compound 209, 5-(2-fluoro-3-(1-(4-fluorophenyl)-1H-imidazol-4-yl)-6-hydroxyphenyl)-1,2,5-thiadiazolidin-3-one 1,1-dioxide]
25 | ≤ 1 | ≤ 1 | CC(C)CCN1CCC=C(c2ccc(O)c(N3CC(=O)NS3(=O)=O)c2F)C1 [Compound 210, 5-(2-fluoro-6-hydroxy-3-(1-isopentyl-1,2,5,6-tetrahydropyridin-3-yl)phenyl)-1,2,5-thiadiazolidin-3-one 1,1-dioxide]
26 | ≤ 1 | ≤ 1 | O=C1CN(c2c(O)ccc(-c3cnn(Cc4ccc(F)c(F)c4)c3)c2F)S(=O)(=O)N1 [Compound 211, 5-(3-(1-(3,4-difluorobenzyl)-1H-pyrazol-4-yl)-2-fluoro-6-hydroxyphenyl)-1,2,5-thiadiazolidin-3-one 1,1-dioxide]
27 | ≤ 1 | ≤ 1 | O=C1CN(c2c(O)ccc(-c3cnn(Cc4ccccc4)c3)c2F)S(=O)(=O)N1 [Compound 212, 5-(3-(1-benzyl-1H-pyrazol-4-yl)-2-fluoro-6-hydroxyphenyl)-1,2,5-thiadiazolidin-3-one 1,1-dioxide]

From patent publication US20240398828A1, “HETERO-ATOM CONTAINING COMPOUNDS AND USES THEREOF” (Kumquat Biosciences Inc., priority 2021, published 2024)
